Results reported in ChEMBL document CHEMBL3351860, “Synthesis and SAR of thieno[3,2-b]pyridinyl urea derivatives as urotensin-II receptor antagonists” (Bioorg Med Chem Lett, 2014).

Experiments:
[1] = biological target: T1, Urotensin-2 receptor (Homo sapiens, UniProt Q9UKP6); assay: Displacement of europium-labeled urotensin-II from human urotensin-2 receptor expressed in HEK293 cells by TRF assay; assay type: cell-based
T1 sequence (Q9UKP6 whole entry): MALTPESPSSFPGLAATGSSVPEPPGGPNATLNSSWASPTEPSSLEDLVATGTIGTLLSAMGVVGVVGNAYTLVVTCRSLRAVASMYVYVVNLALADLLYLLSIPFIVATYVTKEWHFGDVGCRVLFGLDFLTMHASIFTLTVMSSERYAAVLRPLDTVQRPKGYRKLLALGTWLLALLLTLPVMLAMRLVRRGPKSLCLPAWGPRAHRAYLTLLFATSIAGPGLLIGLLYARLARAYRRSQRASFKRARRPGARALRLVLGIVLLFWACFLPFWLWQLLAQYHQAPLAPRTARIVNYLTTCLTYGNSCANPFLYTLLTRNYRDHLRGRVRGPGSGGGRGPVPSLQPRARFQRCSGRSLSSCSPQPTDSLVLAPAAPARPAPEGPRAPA

[2] = biological target: T2, Urotensin-2 receptor (Homo sapiens) (UniProt Q9UKP6); assay: Displacement of europium-labeled urotensin-II from human urotensin-2 receptor expressed in HEK293 cells at 10 uM by TRF assay; assay type: cell-based
T2 sequence (whole entry): T1 sequence (Q9UKP6 whole entry)

[3] = biological target: CYP3A4 (Homo sapiens, UniProt P08684); assay: Inhibition of CYP3A4 (unknown origin) at 10 uM; assay type: ADME
CYP3A4, sequence (P08684 whole entry): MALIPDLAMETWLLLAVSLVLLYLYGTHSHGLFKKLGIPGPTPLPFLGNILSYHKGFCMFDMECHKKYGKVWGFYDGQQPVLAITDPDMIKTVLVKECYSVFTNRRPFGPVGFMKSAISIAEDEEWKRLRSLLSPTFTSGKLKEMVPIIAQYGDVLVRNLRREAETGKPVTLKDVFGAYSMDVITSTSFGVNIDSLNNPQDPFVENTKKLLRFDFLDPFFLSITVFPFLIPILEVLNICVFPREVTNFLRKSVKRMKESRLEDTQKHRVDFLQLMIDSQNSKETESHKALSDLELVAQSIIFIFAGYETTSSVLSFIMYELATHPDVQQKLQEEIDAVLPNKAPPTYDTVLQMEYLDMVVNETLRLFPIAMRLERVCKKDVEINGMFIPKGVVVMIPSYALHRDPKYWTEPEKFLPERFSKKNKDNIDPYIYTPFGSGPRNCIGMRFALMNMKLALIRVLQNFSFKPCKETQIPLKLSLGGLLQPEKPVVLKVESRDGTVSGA

[4] = Metabolic stability in rat liver microsomes after 30 mins; assay type: ADME; conditions: read-out: Stability
[5] = biological target: Voltage-gated inwardly rectifying potassium channel KCNH2 (Homo sapiens, UniProt Q12809); assay: Inhibition of human ERG by patch clam assay
Voltage-gated inwardly rectifying potassium channel KCNH2, sequence (Q12809 whole entry): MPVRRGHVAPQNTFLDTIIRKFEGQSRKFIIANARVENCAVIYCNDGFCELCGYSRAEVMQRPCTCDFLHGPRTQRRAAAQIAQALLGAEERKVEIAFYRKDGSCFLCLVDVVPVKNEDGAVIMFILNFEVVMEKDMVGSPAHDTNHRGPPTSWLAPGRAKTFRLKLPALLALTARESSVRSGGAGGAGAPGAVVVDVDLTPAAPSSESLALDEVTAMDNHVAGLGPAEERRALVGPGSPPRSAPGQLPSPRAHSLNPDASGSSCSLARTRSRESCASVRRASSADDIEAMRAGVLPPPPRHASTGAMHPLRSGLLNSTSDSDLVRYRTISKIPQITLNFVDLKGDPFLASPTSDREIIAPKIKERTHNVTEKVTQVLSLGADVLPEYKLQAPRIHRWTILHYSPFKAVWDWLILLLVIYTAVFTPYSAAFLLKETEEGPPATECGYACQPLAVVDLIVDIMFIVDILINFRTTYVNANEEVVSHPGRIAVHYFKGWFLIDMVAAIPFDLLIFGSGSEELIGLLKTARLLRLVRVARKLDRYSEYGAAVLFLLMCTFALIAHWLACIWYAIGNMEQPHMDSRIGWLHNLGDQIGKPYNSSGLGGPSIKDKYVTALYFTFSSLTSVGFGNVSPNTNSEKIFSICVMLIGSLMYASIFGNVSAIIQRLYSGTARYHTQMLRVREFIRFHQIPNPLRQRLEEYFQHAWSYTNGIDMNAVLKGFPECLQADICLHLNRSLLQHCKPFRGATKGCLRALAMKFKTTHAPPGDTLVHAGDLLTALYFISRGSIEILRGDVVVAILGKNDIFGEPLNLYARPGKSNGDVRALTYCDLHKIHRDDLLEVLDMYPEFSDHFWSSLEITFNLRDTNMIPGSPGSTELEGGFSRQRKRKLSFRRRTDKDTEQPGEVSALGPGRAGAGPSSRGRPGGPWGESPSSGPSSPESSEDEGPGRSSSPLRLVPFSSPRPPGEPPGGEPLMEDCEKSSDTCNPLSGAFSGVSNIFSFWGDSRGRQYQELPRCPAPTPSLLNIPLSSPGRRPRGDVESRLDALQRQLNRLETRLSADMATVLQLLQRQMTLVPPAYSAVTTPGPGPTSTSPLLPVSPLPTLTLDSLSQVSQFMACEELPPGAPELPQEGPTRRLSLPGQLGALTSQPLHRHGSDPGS

[6] = Metabolic stability in human liver microsomes after 30 mins; assay type: ADME; conditions: read-out: Stability
[7] = Permeability of the compound by PAMPA assay; assay type: ADME; conditions: read-out: permeability

IC50 [1] [nM]	SMILES	also measured
140	Cc1cccc(CC2(O)CCN(CCNC(=O)Nc3ccnc4ccsc34)CC2)c1	–
26	Cc1cc(NC(=O)NCCN2CCC(O)(Cc3ccccc3)CC2)c2sccc2n1	–
600	Cn1ccc2nccc(NC(=O)NCCN3CCC(O)(Cc4ccccc4)CC3)c21	–
60	CCc1cc(NC(=O)NCCN2CCC(O)(Cc3ccccc3)CC2)c2sccc2n1	–
3220	O=C(NCCN1CCC(O)(Cc2ccccc2)CC1)Nc1ccnc2c(Br)csc12	–
220	Cc1cc(NC(=O)NCCN2CCC(O)(Cc3ccccc3)CC2)c2cnn(C)c2n1	–
36	O=C(NCCN1CCC(O)(Cc2ccccc2)CC1)Nc1ccnc2ccsc12	–
20	Cc1ccccc1CC1(O)CCN(CCNC(=O)Nc2ccnc3ccsc23)CC1	–
2140	Cn1cnc2c(NC(=O)NCCN3CCC(O)(Cc4ccccc4)CC3)ccnc21	–

Second part, the molecule before the results:

SMILES	IC50 [1] [nM]	also measured
Cc1ccc(CC2(O)CCN(CCNC(=O)Nc3ccnc4ccsc34)CC2)cc1	190	–
O=C(NCCN1CCC(O)(Cc2cccc(Br)c2)CC1)Nc1ccnc2ccsc12	42	–
O=C(NCCN1CCC(O)(Cc2ccccc2)CC1)Nc1cc(Cl)nc2ccsc12	–	inhibition [2]: 25.6%
O=C(NCCN1CCC(O)(Cc2ccc(F)cc2)CC1)Nc1ccnc2ccsc12	13	inhibition at 10 µM [3]: > 10%; remaining at 0.5 h [4]: 100%; IC50 [5]: 5000 nM; remaining at 0.5 h [6]: 52%; Papp [7]: 0.027 ×10⁻⁶ cm/s
Cc1csc2c(NC(=O)NCCN3CCC(O)(Cc4ccccc4)CC3)ccnc12	1230	–
Cn1ccc2c(NC(=O)NCCN3CCC(O)(Cc4ccccc4)CC3)ccnc21	160	–
O=C(NCCN1CCC(O)(Cc2ccccc2)CC1)Nc1ccnc2sccc12	930	–
O=C(NCCN1CCC(O)(Cc2ccccc2Br)CC1)Nc1ccnc2ccsc12	20	–
O=C(NCCN1CCC(O)(Cc2ccccc2)CC1)Nc1cc(-c2ccccc2)nc2ccsc12	–	inhibition [2]: 25.4%
O=C(NCCN1CCC(O)(Cc2ccccc2)CC1)Nc1ccnc2ccoc12	450	–
Cc1cc2nccc(NC(=O)NCCN3CCC(O)(Cc4ccccc4)CC3)c2s1	78	–
O=C(NCCN1CCC(O)(Cc2ccccc2)CC1)Nc1ccnc2cc(-c3ccccc3)sc12	–	inhibition [2]: 47.3%
